Experimental findings from patent US8633225B2, “Piperidinium compounds and cosmetic compositions containing them” (Beiersdorf AG, priority 2006, dated 2014) are described below.

The assay in a line: inhibiting or reducing perspiration (antihidrotic effect); statement only, no test described. Particulars: qualitative statement.

On to `CCC(C)C(C(=O)OC1CC[N+](C)(C)CC1)c1ccccc1.[Br-]` (stereo not shown) [4-{[2-(2-butyl)-2-phenylacetyl)oxy]}-1,1-dimethyl-piperidinium bromide], for which the “efficacy in inhibiting perspiration” value is on record as “very good efficacy in inhibiting perspiration”.
